# Like-named read-outs stand apart in the source and are kept apart here.
# Key:
# arthritic knee joint = conditions: three to five injections at one-week intervals, on average; cited from earlier work
# [1] = humans, dependent on the molecular weight; cited from earlier work
# [2] = Coloring (Maillard reaction) of aqueous solutions on storage; format: physicochemical; conditions: 6.0% in water by total weight of the composition
# Procedure: At the chemical level, glucosamine, which can be of either natural or synthetic origin, is a glucose molecule to which an amino grouping has bonded. Consequently, in water without the addition of sugar, this molecule automatically leads to the appearance of a brown color of the solution by the condensation reaction of the different glucosamine molecules together. This appears clearly in an aqueous 7.5% glucosamine solution. After 8 months at 40° C., the solution takes on a caramel hue.
# Three solutions have been produced, each containing 7.5% glucosamine by weight with respect to the total weight of the composition and 6.0% chondroitin sulfate by weight with respect to the total weight of the composition. In two solutions, anhydrous citric acid was added before the introduction of chondroitin sulfate. One of the solutions was heated at 100° C. for 10 minutes.
# [3] = 800 to 1200 mg/day; cited from earlier work
# [4] = cited from earlier work
# [5] = animals, labeled chondroitin; cited from earlier work
# [6] = placebo-controlled; cited from earlier work
# [7] = beyond a pH of 7.0; cited from earlier work
# [8] = cited from earlier work; remark: listed apart in the source
# [9] = taken orally; cited from earlier work
compound,measurement,setting,value
hyaluronic acid,duration of efficacy,arthritic knee joint,8-9 months
chondroitin sulfate,absorption,[1],around 15%
same,intensity of coloring compared with a pure 7.5% glucosamine solution,[2],ten times less intense
same,Lequesne index,[3],improves the Lequesne index
same,articular joint space,[3],preserves the articular joint space
same,mobility,[3],improves mobility
same,pain,[3],reduces pain
same,solubility in alcohols,"[4]; ethanol, propanol-1 and isopropanol",insoluble
same,absorption,[5],more than 66%
CC(=O)Oc1cccc2c1C(=O)c1c(OC(C)=O)cc(C(=O)O)cc1C2=O [Diacerein],articular joint space,[6],significant decrease in the articular joint space
N[C@H]1C(O)O[C@H](CO)[C@@H](O)[C@@H]1O (stereo partly shown) [glucosamine],degradation,[7],degrades rapidly
same,efficacy on joint pain and swelling compared with ibuprofen,[8]; beginning in the second week of treatment,more effective than ibuprofen
same,articular joint space,[8]; in vivo,preserves the articular joint space
same,absorption,[9],~90%
same,time until maximum concentration is reached,[9],8 h
same,solubility in water and in an alcohol medium,[4],highly soluble

# — patent US20100210584A1, “LIQUID OR PASTE COMPOSITIONS INTENDED TO PROVIDE ELEMENTS ESSENTIAL FOR THE SYNTHESIS AND FORMATION OF PROTEOGLYCANS, IN PARTICULAR, FOR THE TREATMENT OF CARTILAGE DEGRADATION” (priority 2007, published 2010)
